Assay results: US8017649B2, “Flavonoid compounds and uses thereof” (Howard Florey Institute of Experimental Physiology and …, priority 2005, dated 2011)
Entries after “also recorded” stand apart in the source; their conditions may differ.

What was measured:
[1] = system: superoxide anions generated in rat aorta; assay: Superoxide anion production in rat isolated aortic segments (lucigenin chemiluminescence, NADPH); assay type: cell-based; conditions: for superoxide levels: highest concentration tested (0.1 mM)
Procedure: Superoxide anion production in rat isolated aortic segments was determined using lucigenin chemiluminescence. Aortic rings were prepared as described above and then placed in ice-cold Krebs-(N-[2-Hydroxyethyl]piperazine-N′-[2-ethanesulfonic acid] (HEPES buffer) (composition (mM); NaCl 99.0, KCl 4.7, KH2PO4 1.0, MgSO4·7H2O 1.2, D-glucose 11.0, NaHCO3 25.0, CaCl2·2H2O 2.5, Na-HEPES 20.0). Aortic rings were pre-incubated for 45 minutes at 37° C. with a pH 7.4, in Krebs-HEPES buffer containing diethylthiocarbamic acid (DETCA, 10^−3 M) to inactivate superoxide dismutase and β-nicotinamide adenine dinucleotide phosphate (NADPH, 10^−4 M) as a substrate for NADPH oxidase and either 3′,4′-dihydroxyflavonol (10^−4 M) as a positive control, vehicle, 3-hydroxyflavone-3-hemiadipate, 3′,4′-dihydroxy-3-hemiadipate, 3-hydroxyflavone-3-phosphate (10^−8-10^−4 M). Background photon emission was measured for 12 cycles in a 96-well Optiplate containing 0.3 ml per well of Krebs-HEPES buffer together with lucigenin (5×10^−5 M) and vehicle or flavonoid (10^−8-10^−4 M). Each cycle was counted every one minute. After background reading was completed the incubated aortic rings were transferred to the appropriate wells and photon emission was recounted as described above. The tissue was then placed in a 65° C. oven for 48 hours to allow superoxide production to be normalised to dry tissue weight.
The effects of vehicle, 3′,4′-dihydroxyflavone-3-hemiadipate (21) (DiOHF3HA, 10^−8 M-10^−4 M) and DiOHF (10^−4 M) in the presence and absence of Butyryl cholinesterase (BuCHE), 100, 300 and 1000 U/L) on the level of superoxide anions generated in rat isolated aortic segments in the presence of NADPH was expressed as a percentage of control. The method used was as described above except for the addition of the butyryl cholinesterase.
The effect of vehicle, 3-hydroxyflavone-3-phosphate (10^−8 to 10^−4 M) in the presence or absence of phosphatase (1000 U/L) on the level of superoxide anions generated in rat aorta in the presence of NADPH expressed as a percentage of control was determined as described above for the 3′,4′-dihydroxyflavone-3-hemiadipate.

[2] = system: rat aorta precontracted with PE; assay: Direct relaxation of PE/U46619-precontracted rat aortic rings; assay type: cell-based; conditions: substance alone
Procedure: Following testing of endothelial integrity, rings were repeatedly washed and re-equilibrated for 30 minutes before the addition of PE (10^−8−2×10^−7 M) and 9,11-dideoxy-9α, 11α-epoxymethano-prostaglandin F2α (U46619, 10^−9-10^−8 M) to produce an active force in the range of 40-60% of KPSS-induced contraction. The level of precontraction was matched between the various groups by adjusting the concentrations of PE and U46619. Cumulative concentration-response curves in the range 10^−8-10^−4 M were conducted for 3′,4′-dihydroxyflavonol, 3-hydroxyflavone-3-hemiadipate, 3′,4′-dihydroxy-3-hemiadipate, 3-hydroxyflavone-3-phosphate.
Experiments were conducted in the presence of an esterase, butyryl cholinesterase (BuCHE, 1000 U/L) for the hemiadipate derivates and a phosphatase 1000 U/L) in the case of the phosphate derivatives.
Following testing of endothelial integrity, rings were repeatedly washed and re-equilibrated for 30 minutes before the addition of PE (10^−8−2×10^−7 M) and 9,11-dideoxy-9α, 11α-epoxymethano-prostaglandin F2α (U46619, 10^−9-10^−7 M) to produce an active force in the range of 40-60% of KPSS-induced contraction. Cumulative concentration-response curves in the range 10^−7-10^−4 M were conducted for vehicle, 3′-hydroxyflavonol, F3HA, DiOHF3HA, F3P. Experiments were conducted in the presence and absence of 1000 U/L BuCHE to cleave the adipate in F3HA and DiOHF3HA. In experiments using F3P 1000 U/L phosphatase was used in some experiments to cleave the phosphate.

anaesthetised rats = assay: Arterial pressure and heart rate in anaesthetised rats after intravenous injection; assay type: in vivo, rat; conditions: intravenous, anaesthetised rats
Procedure: A unit dosage of an aqueous solution of 3-hydroxyflavone-3-hemiadipate (15) was administered to a group of male anesthetized Sprague Dawley rats intravenously and the blood pressure monitored over a period of time.
Male Sprague-Dawley rats (250-350 g) were anaesthetised with pentobarbitone sodium (60 mg kg^−1, ip). The trachea was isolated and cannulated with polyethylene tracheal tube (I.D. 2.0 mm), and the rat was allowed to breathe spontaneously.
The right carotid artery was cannulated and connected with a heparinised saline filled cannula (O.D. 0.75, I.D, 0.58 mm) and connected to a pressure transducer. Mean and phasic arterial pressure were continuously measured and recorded on a polygraph. The heart rate, was derived from the phasic arterial pressure using a tachometer.
DiOHF3HA ([…]) was injected intravenously, allowing at least 30 min between injections, and the peak changes in mean arterial pressure and heart rate measured. […] In a separate group of experiments ACh (0.3 mg/kg iv) and phenylephrine (PE, […]) were injected before and 30 minutes after DiOHF3HA (3 mg/kg iv), a time when arterial pressure and heart rate had returned to control levels. […]

[3] = system: endothelium intact aortic rings; assay: Ca2+-induced contraction of rat aortic rings in Ca2+-free high-K+ solution; assay type: cell-based
Procedure: To determine the effect of flavonoids on responses to the influx of extracellular Ca^2+, contractile responses to exogenous application of Ca^2+ were examined in the presence of flavonoids in Ca^2+-free high-K^+ solution (60 mM, KPSS). Aortic rings were initially equilibrated at a resting tension of 1 g in normal Ca^2+-free PSS for 45 minutes. The bath medium was then replaced with Ca^2+-free KPSS for 45 minutes to determine a reference contraction to Ca^2+ (3×10^−3 M). Following a 30 minute re-equilibration period with Ca^2+-free PSS, the cumulative contractile responses to Ca^2+ (10^−5−3×10^−3 M) were determined in KPSS in the presence of a range of concentrations (10^−8-10^−4 M) of vehicle, 3′,4′-dihydroxyflavonol, 3-hydroxyflavone-3-hemiadipate, 3′,4′-dihydroxy-3-hemiadipate, 3-hydroxyflavone-3-phosphate. A 20 minute incubation period was allowed for the flavonoids before examining the responses to Ca^2+.
To determine the effect of flavonoids on responses to the influx of extracellular Ca^2+, contractile responses to exogenous application of Ca^2+ were examined in the presence of flavonoids in Ca^2+-free high-K^+ solution (60 mM, K+-PSS). Aortic rings were initially equilibrated at a resting tension of 1 g in Ca^2+-free PSS for 45 minutes. The bath medium was then replaced with Ca^2+-free K+-PSS for 45 minutes to determine a reference contraction to added Ca^2+ (3 mM). Following a 30 minute re-equilibration period with Ca^2+-free PSS, the cumulative contractile responses to Ca^2+ (10^−5−3×10^−3 M) were determined in K^+ PSS in the presence of vehicle (0.1% DMSO), or a range of concentrations (10^−7-10^−4 M) of 3′-hydroxyflavonol, F3HA, DiOHF3HA or F3P. A 20 minute incubation period was allowed for the flavonoids before examining the responses to Ca^2+. Experiments were conducted in the presence and absence of BuCHE (1000 U/L) to cleave the adipate in F3HA and DiOHF3HA. In experiments using F3P, phosphatase (1000 U/L) was used in some experiments to cleave the phosphate.

[4] = system: endothelium intact aortic rings; assay: Effect on ACh relaxation of precontracted rat aortic rings; assay type: cell-based; conditions: substance alone
Procedure: (§1) After wash out and re-equilibration for 30 min, the aortic rings were then submaximally precontracted with PE and U46619, which were used to produce an active tension of 45-60% of the KPSS-induced maximum contraction. When investigating the effects of the flavonoids, flavonol, flavone-3-hemiadipate (F3HA), 3′, 4′-dihydroxyflavone, 3′,4′-dihydroxyflavonol, 3′,4′-dihydroxyflavone-3-hemiadipate (DiOHF3HA), and flavone-3-phosphate (F3P) on vasorelaxant responses, rings were incubated with one of the compounds for 20 mins before they were precontracted submaximally, followed by a cumulative-concentration response curve to ACh (100 nM-10 μM) or SNP ([…]). In experiments using F3P 1000U/L phosphatase was used in some experiments to cleave the phosphate. Some experiments were conducted in the presence and absence of butyryl cholinesterase (BuCHE, 1000 U/L) to cleave the adipate in DiOHF3HA and F3HA.

aortic rings = assay: Effect on SNP relaxation of precontracted rat aortic rings; assay type: cell-based; conditions: substance alone
Procedure: as §1

[5] = substance alone, no added esterase/phosphatase, up to 10^−4 M, NADPH

Molecule: O=c1cc(-c2ccc(O)c(O)c2)oc2ccccc12 [DiOHFne, 3′,4′-dihydroxyflavone, reference compound]
- superoxide levels [1]: 36±3 % of control
- effect on superoxide generation [1, 5]: concentration dependent decreases in superoxide levels
- direct relaxing effect on precontracted vessels [2]: concentration-dependent relaxation of rat aorta which was weaker than the effect of DiOHF

Molecule: O=C(O)CCCCC(=O)Oc1c(-c2ccccc2)oc2ccccc2c1=O [F3HA, Flavone-3-hemiadipate]
- change in mean arterial pressure (MAP) (anaesthetised rats): significant reduction in the blood pressure
- effect on Ca^2+-induced contraction ([3]; alone, highest concentration 10^−4 M): only inhibited contractile responses to increasing concentrations of extracellular calcium at the highest concentration tested
- effect on Ca^2+-induced contraction ([3]; alone, highest concentration 10^−4 M, listed as flavone-3-hemiadipate): some inhibitory effect
- effect on Ca^2+-induced contraction ([3]; alone, lower concentrations 10^−8 to 10^−5 M): did not effect Ca^2+ contraction
- effect on Ca^2+-induced contraction ([3]; in the presence of BuCHE or phosphatase (1000 U/L)): inhibit calcium-induced contraction
- effect on superoxide generation ([1]; in the presence of cleaving enzyme (BuCHE for hemiadipates, phosphatase for phosphate, 1000 U/L)): concentration dependent increase in the inhibitory effect
- effect on superoxide generation ([1]; in the presence of cleaving enzyme (BuCHE for hemiadipates, phosphatase for phosphate, 1000 U/L), listed as flavone-3-hemiadipate): concentration-dependent inhibitory effect
- effect on superoxide generation [1, 5]: no inhibitory effect on superoxide generation; also recorded: no antioxidant or vascular activity
- effect on superoxide generation ([1]; substance alone, no added esterase/phosphatase, up to 10^−4 M, NADPH, listed as Flavone-3-hemiadipate): no effect on the superoxide production
- effect on superoxide generation ([1]; substance alone, no added esterase/phosphatase, up to 10^−4 M, NADPH, listed as flavone-3-hemiadipate): no effect on the superoxide production at any concentration

Molecule: O=c1c(O)c(-c2ccccc2)oc2ccccc12 [Flavonol, reference compound]
- effect on Ca^2+-induced contraction ([3]; alone, over the concentration range tested): concentration dependent decreases in calcium-induced contraction
- superoxide levels [1]: 36±3 % of control
- effect on superoxide generation [1, 5]: concentration dependent decreases in superoxide levels
- effect on relaxant response to ACh [4]: did not affect
- effect on relaxant response to SNP (aortic rings): did not affect

B1: BuCHE: butyryl cholinesterase, esterase used to cleave the adipate (protein, UniProt P06276 29-602, looked up)
Cholinesterase: EDDIIIATKNGKVRGMNLTVFGGTVTAFLGIPYAQPPLGRLRFKKPQSLTKWSDIWNATKYANSCCQNIDQSFPGFHGSEMWNPNTDLSEDCLYLNVWIPAPKPKNATVLIWIYGGGFQTGTSSLHVYDGKFLARVERVIVVSMNYRVGALGFLALPGNPEAPGNMGLFDQQLALQWVQKNIAAFGGNPKSVTLFGESAGAASVSLHLLSPGSHSLFTRAILQSGSFNAPWAVTSLYEARNRTLNLAKLTGCSRENETEIIKCLRNKDPQEILLNEAFVVPYGTPLSVNFGPTVDGDFLTDMPDILLELGQFKKTQILVGVNKDEGTAFLVYGAPGFSKDNNSIITRKEFQEGLKIFFPGVSEFGKESILFHYTDWVDDQRPENYREALGDVVGDYNFICPALEFTKKFSEWGNNAFFYYFEHRSSKLPWPEWMGVMHGYEIEFVFGLPLERRDNYTKAEEILSRSIVKRWANFAKYGNPNETQNNSTSWPVFKSTEQKYLTLNTESTRIMTKLRAQQCRFWTSFFPKVLEMTGNIDEAEWEWKAGFHRWNNYMMDWKNQFNDYTSKKESCVGL
- direct relaxing effect on precontracted vessels [2]: no effect on PE precontracted vessels
